Experimental data: patent US7169591B1, “Preparation of enantio-specific epoxides” (priority 1999, dated 2007)

Tests used:
[1] = system: Burkholderia cepacia G4 (T2MO); experiment: Enantiomeric ratio of monoepoxides (chiral GC), strain G4; type: cell-based
Method: (§1) To determine the ratio of R and S isomers of the epoxides formed from the oxidation of the alkenes, samples were analyzed for the presence of the epoxides and alkenes by gas chromatography as described above. When the epoxide concentration neared its maximum, or when the 80–90% of the substrate was degraded, the enantiomeric ratio of epoxides produced was determined by injecting a sample of the headspace gas onto a GC equipped with a chiral separation column (RT-BDEXSE; Restek, Inc., Bellefonte, Pa.) and a flame ionization detector. The column was maintained at 50° C.

[2] = system: Pseudomonas pickettii PKO1 (T3MO); experiment: Enantiomeric ratio of monoepoxides (chiral GC), strain PKO1; type: cell-based; conditions: KO1 (PKO1)
Method: as §1

[3] = system: Pseudomonas sp. strain ENVPC5; experiment: Alkene degradation assay, whole cells of Pseudomonas sp. strain ENVPC5 (T4MO); type: cell-based; conditions: for added substrate degraded: in 20 hours
Text: (§2) Pseudomonas mendocina KR1 (Yen et al., J. Bacteriol., 173:5315–5327 (1991)), the T4MO mutant of KR1 Pseudomonas mendocina ENVpmx1 (McClay et al., The 97th Annual Meeting of ASM, Abstract K36, page 348 (1997)), Pseudomonas pickettii PKO1 (Byrne et al., Gene, 154:65–70 (1995)), Burkholderia cepacia G4 (Shields et al., Appl. Environ. Microbiol., 55:1624–1629 (1989)), Burkholderia sp. strain ENVBF1 (McClay et al., Appl. Environ. Microbiol., 62:2716–2722 (1996)), and Pseudomonas sp. strain ENVPC5 (McClay et al., 1996, supra) were cultured overnight at 30° C. in shake flasks containing basal salts medium (BSM; 10) supplemented with 0.4% sodium glutamate. Toluene was included in the vapor phase when induction of the toluene oxygenases was desired. Prior to substrate degradation assays the cultures were harvested by centrifugation and resuspended in BSM to an optical density at 550 nm (OD550) of 2, unless otherwise indicated. A standard curve of optical density vs. protein concentration for each strain was used to calculate the amount of protein per ml of the resuspended cultures.
(§3) To determine the range of alkenes that could be degraded by the toluene monooxygenase and the degradation kinetics of the toluene monooxygenases, 5-ml aliquots of the resuspended cultures were dispensed to 25-ml serum vials and crimp sealed with Teflon™ faced septa. Gaseous alkene substrates were added as pure compounds by using a gas-tight syringe, and other alkene substrates were added from stock solutions (20% in dimethylformamide). The amount of individual alkene substrates added were as follows: 1-butene, 2-butene, and 1,3-butadiene, 2.2 μM; epoxy butane, 1,3-butadiene monoxide, and epichlorohydrine, 8 μM; 1- and 2-pentene, 9 μM; hexene, 4 μM; octadiene, 4.5 μM; 2-chloropropene, 11 μM; and, 2,3-dichloropropene, 12 μM unless otherwise indicated. The serum vials were then placed horizontally on a rotary shaker operating at 100 rpm. During incubation the temperature was maintained between 20–22° C. for the Pseudomonads and at 37° C. for E. coli. The serum vials were periodically removed from the shaker and a 10–25 μl portion of the headspace gas was withdrawn through the septa and injected onto a gas chromatograph (GC) equipped with a 30 m Vocol column (Supelco Inc. Bellefonte, Pa.) maintained at 160° C., and a flame ionization detector. This allowed the monitoring of both the alkene compounds as well as the epoxide products. The same protocol was used to detect the formation of 1,2-butanediol and butadiene diepoxide, except that 1 μl of the culture media was injected onto the column rather than the headspace gas.

Burkholderia cepacia G4 = experiment: Alkene degradation assay, whole cells of Burkholderia cepacia G4 (T2MO); type: cell-based; conditions: for alkene degraded that was detected as the epoxide product: toluene induced G4, 4.4 μmoles 1,3-butadiene or 2.2 μmoles 2-butene
Text: as §2, §3

[4] = system: Pseudomonas mendocina KR1 (T4MO); experiment: Enantiomeric ratio of monoepoxides (chiral GC), strain KR1; type: cell-based
Method: as §1

[5] = system: Pseudomonas sp. strain ENVPC5; experiment: Enantiomeric ratio of monoepoxides (chiral GC), strain ENVPC5; type: cell-based; conditions: PC5
Method: as §1

[6] = system: Burkholderia sp. strain ENVBF1; experiment: Alkene degradation assay, whole cells of Burkholderia sp. strain ENVBF1 (T4MO); type: cell-based
Text: as §2, §3

[7] = system: Pseudomonas mendocina KR1; experiment: Alkene degradation assay, whole cells of Pseudomonas mendocina KR1 (T4MO); type: cell-based
Text: as §2, §3

[8] = system: Burkholderia sp. strain ENVBF1; experiment: Enantiomeric ratio of monoepoxides (chiral GC), strain ENVBF1; type: cell-based
Method: as §1

alkane hydroxylase = molecular target: T1, alkane hydroxylase (Ectopseudomonas oleovorans, UniProt P12691); conditions: cited from earlier work
T1 sequence (P12691 1-401): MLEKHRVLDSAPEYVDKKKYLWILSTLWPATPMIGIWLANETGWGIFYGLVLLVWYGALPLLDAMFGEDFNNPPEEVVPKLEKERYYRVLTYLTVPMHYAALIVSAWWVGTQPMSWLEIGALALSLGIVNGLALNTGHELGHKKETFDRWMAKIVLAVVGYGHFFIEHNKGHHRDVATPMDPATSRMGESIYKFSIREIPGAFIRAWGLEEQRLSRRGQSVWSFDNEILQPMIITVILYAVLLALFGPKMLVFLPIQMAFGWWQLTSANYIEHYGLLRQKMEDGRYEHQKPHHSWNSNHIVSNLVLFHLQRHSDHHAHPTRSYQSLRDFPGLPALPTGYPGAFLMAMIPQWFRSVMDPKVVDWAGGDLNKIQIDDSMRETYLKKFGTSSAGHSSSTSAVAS

wild type organisms = experiment: Alkene oxidation and epoxide detection (GC, PNBP), wild type organisms; type: cell-based; conditions: for epoxide detection during oxidation: wild type organisms
Method: as §3
The only epoxides relevant to this study that were commercially available were 1,3-butadiene mono-, and diepoxide. These were used in GC analyses to determine retention times and to quantitate the conversion of 1,3-butadiene to the corresponding epoxides. To verify that the observed peaks were epoxides, a modification of the method of van Hylckama et al. (van Hylckama et al., Appl. Environ. Microbiol., 62:3304–3312 (1996)) was used, whereby epoxides were conjugated with PNBP to form intensely colored adducts of the epoxides. Serum vials were prepared as before, except that prior to sealing the vials, Durham tubes were placed inside the vials, with the opening of the Durham tube extending out of the liquid. The substrate was then added and the vials were incubated with moderate shaking at a 45° angle to prevent the culture liquid from entering the Durham tube. The transformation of the alkenes was monitored by GC analysis. […] The vials were then allowed to incubate for 8 hours before they were opened and the epoxide containing PNBP withdrawn. The total volume of PNBP solution was combined with an equal volume of acetone-triethylamine (50:50) and mixed rapidly. Epoxide/PNBP adducts were detected by spectra analysis (400–700 nm).

[9] = system: E. coli (pRS202) expressing T4MO; experiment: Alkene degradation assay, E. coli (pRS202) expressing T4MO; type: cell-based, Escherichia coli DH10B
Method: Escherichia coli DH10B containing the plasmid pRS202 (Pikus et al., Biochemistry, 35:9106–9119 (1996); Pikus et al., Biochemistry, 36:9283–9289 (1997)) was prepared in a similar manner except it was grown at 37° C. in LB media, and was resuspended to an OD550 of 4 in LB media with 0.3–1 mM IPTG to induce expression of T4MO.
as §3

[10] = system: Pseudomonas mendocina ENVpmx1; experiment: Alkene degradation assay, T4MO deficient strain Pseudomonas mendocina ENVpmx1; type: cell-based
Text: as §2, §3

[11] = following 30 minutes incubation
[12] = ENVBF1, following 30 minutes incubation
[13] = rate determined after 60 minutes of incubation

Molecule: C=CC=C [1,3-butadiene]
- monoepoxide formed, R enantiomer [1]: 8.1%
- monoepoxide formed, S enantiomer [1]: 91.9%
- monoepoxide formed, R enantiomer [2]: 19.6%
- monoepoxide formed, S enantiomer [2]: 80.4%
- Specific activity of toluene monooxygenase, substrate degraded [3, 11]: 0.09 μM substrate degraded/minute/mg protein
- added substrate degraded [3]: 50%
- time until oxidized to a concentration below the limits of detection (Burkholderia cepacia G4; G4): ≤ 6 h
- alkene degraded that was detected as the epoxide product (Burkholderia cepacia G4): > 95%
- monoepoxide formed, R enantiomer [4]: 22.4%
- monoepoxide formed, S enantiomer [4]: 77.6%
- monoepoxide formed, R enantiomer [5]: 32.7%
- monoepoxide formed, S enantiomer [5]: 67.3%
- Specific activity of toluene monooxygenase, substrate degraded [6, 12]: 0.13 μM substrate degraded/minute/mg protein
- added substrate degraded ([7]; in 20 hours): 50%
- substrate degraded ([7]; in 20 hours): 1.1 µmol
- monoepoxide formed, R enantiomer [8]: 22%
- monoepoxide formed, S enantiomer [8]: 78%

Molecule: C=CCCCCC=C [1,7-octadiene]
- enantiomeric purity of the (R) epoxide formed (alkane hydroxylase): 98%

Molecule: C=CCCC [1-pentene]
- monoepoxide formed, R enantiomer [1]: 100%
- monoepoxide formed, S enantiomer [1]: 0%
- monoepoxide formed, R enantiomer [2]: 64.6%
- monoepoxide formed, S enantiomer [2]: 35.4%
- Specific activity of toluene monooxygenase, substrate degraded [3, 11]: 0.15 μM substrate degraded/minute/mg protein
- Specific activity of toluene monooxygenase, substrate degraded (Burkholderia cepacia G4; G4, following 30 minutes incubation): 0.08 μM substrate degraded/minute/mg protein
- degradation (wild type organisms; all the wild type strains): efficiently degraded
- monoepoxide formed, R enantiomer [4]: 54.2%
- monoepoxide formed, S enantiomer [4]: 45.8%
- monoepoxide formed, R enantiomer [5]: 72.5%
- monoepoxide formed, S enantiomer [5]: 27.5%
- Specific activity of toluene monooxygenase, substrate degraded [6, 12]: 0.05 μM substrate degraded/minute/mg protein
- Specific activity of toluene monooxygenase, substrate degraded [7, 11]: 0.21 μM substrate degraded/minute/mg protein
- monoepoxide formed, R enantiomer [8]: 66.3%
- monoepoxide formed, S enantiomer [8]: 33.7%
- degradation by the clone of T4MO [9]: degraded

Molecule: C=C(Cl)CCl [2,3-chloropropene, 2,3-dichloropropene]
- amount oxidized, less than the amount of 2-chloropropene degraded by the same strain [3]: 66.0%
- Specific activity of toluene monooxygenase, substrate degraded [3, 13]: 0.12 μM substrate degraded/minute/mg protein
- amount degraded compared with the T4MO-expressing organisms (Burkholderia cepacia G4; G4): twice as much
- Specific activity of toluene monooxygenase, substrate degraded (Burkholderia cepacia G4; G4, rate determined after 60 minutes of incubation): 0.23 μM substrate degraded/minute/mg protein
- epoxide detection during oxidation (wild type organisms): no epoxides were detected
- amount oxidized, less than the amount of 2-chloropropene degraded by the same strain ([6]; ENVBF1): 75.6%
- Specific activity of toluene monooxygenase, substrate degraded ([6]; ENVBF1, rate determined after 60 minutes of incubation): 0.08 μM substrate degraded/minute/mg protein
- amount oxidized, less than the amount of 2-chloropropene degraded by the same strain [7]: 95.2%
- Specific activity of toluene monooxygenase, substrate degraded [7, 13]: 0.01 μM substrate degraded/minute/mg protein

Molecule: CC=CC [2-butene]
- Specific activity of toluene monooxygenase, substrate degraded [3, 11]: 0.17 μM substrate degraded/minute/mg protein
- added substrate degraded [3]: Greater than 95%
- alkene degraded that was detected as the epoxide product (Burkholderia cepacia G4): 43%
- Specific activity of toluene monooxygenase, substrate degraded [6, 12]: 0.12 μM substrate degraded/minute/mg protein
- time to degrade all the substrate [7]: 3.5 h
- added substrate degraded ([7]; in 20 hours): Greater than 95%

Molecule: C=C(C)Cl [2-chloropropene]
- substrate degraded ([3]; first 3 hours of incubation): 4 µmol
- Specific activity of toluene monooxygenase, substrate degraded [3, 11]: 0.18 μM substrate degraded/minute/mg protein
- additional substrate degraded ([3]; following 17 hours): 1.0 µmol
- epoxide detection during oxidation (wild type organisms): no epoxides were detected
- substrate degraded ([6]; ENVBF1, first 3 hours of incubation): 2.3 µmol
- Specific activity of toluene monooxygenase, substrate degraded [6, 12]: 0.16 μM substrate degraded/minute/mg protein
- substrate degraded ([6]; ENVBF1, following 17 hours): 6.3 µmol
- substrate degraded ([7]; first 3 hours of incubation): 2.1 µmol
- Specific activity of toluene monooxygenase, substrate degraded [7, 11]: 0.07 μM substrate degraded/minute/mg protein
- additional substrate degraded ([7]; following 17 hours): 0.84 µmol

Molecule: C=CCCCCC1CO1 (stereo not drawn) [7,8-epoxy-1-octene]
- enantiomeric purity of the (R) epoxide formed (alkane hydroxylase): 83%

Molecule: C=CC1CO1 (stereo not drawn) [BME, 1,3-butadiene monoepoxide]
- epoxide degraded (Burkholderia cepacia G4; induced G4 in the presence of butadiene, approximately 5 hr): 0.7 µmol
- epoxide degraded (Burkholderia cepacia G4; induced G4 in the presence of toluene, approximately 5 hr): 0.5 µmol
- epoxide degraded (Burkholderia cepacia G4; toluene-induced G4, pure BME, first hour): 8 µmol
- epoxide oxidized (Burkholderia cepacia G4; uninduced G4, first hour): less than 1 μmole
- epoxide oxidized ([6]; induced ENVBF1, 24 hours): 13.4 µmol
- epoxide degraded ([6]; uninduced ENVBF1, 24 hours): less than 1.3 μmoles

Molecule: hexene
- epoxide detection during oxidation (wild type organisms): no epoxides were detected
- degradation compared with the wild type strains [10]: at a greater rate than the wild type strains
- epoxide detection during oxidation [10]: no epoxides were detected
- degradation by the clone of T4MO [9]: degraded

Molecule: octadiene
- epoxide detection during oxidation (wild type organisms): no epoxides were detected
- degradation compared with the wild type strains [10]: at a greater rate than the wild type strains
- epoxide detection during oxidation [10]: no epoxides were detected
- degradation by the clone of T4MO [9]: did not oxidize

Molecule: pentene
- epoxide detection during oxidation [10]: no epoxides were detected
